According to patent US10195196B2, “1,4-disubstituted pyridazine analogs there of and methods for treating SMN-deficiency-related conditions” (NOVARTIS AG, priority 2012, dated 2019):

Tested on: SMN protein
Assay: cellular SMN ELISA (SMN protein elevation)
Type: cell-based
Details: ELISA condition 2: compound concentration 100 pM-10 uM, myoblast cell line from SMNdelta7 mouse model, 24 hours treatment; for SMN activity Fold: fold activation over DMSO control
Procedure, shortened: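 Readout is fold SMN elevation versus DMSO plus EC50, measured by anti-SMN capture ELISA with 450 nm absorbance. Lysates came from a myoblast line of the SMNdelta7 mouse model after 24 h compound exposure, with dose ranges of 20 nM–10 μM (condition 1) or 100 pM–10 μM (condition 2).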

Row | SMILES | EC50 [nM] | SMN activity Fold [Fold]
1 | CN(c1ccc(-c2c(O)cc(-c3cnn(C)c3)cc2OC(F)(F)F)nn1)C1CC(C)(C)NC(C)(C)C1 [Example 25-4, 2-(6-(methyl(2,2,6,6-tetramethylpiperidin-4-yl)amino)pyridazin-3-yl)-5-(1-methyl-1H-pyrazol-4-yl)-3-(trifluoromethoxy)phenol] | 199 | 2.30
2 | CN(c1ccc(-c2c(O)cc(-c3cn[nH]c3)cc2OC(F)(F)F)nn1)C1CC(C)(C)NC(C)(C)C1 [Example 25-5, 2-(6-(methyl(2,2,6,6-tetramethylpiperidin-4-yl)amino)pyridazin-3-yl)-5-(1H-pyrazol-4-yl)-3-(trifluoromethoxy)phenol] | 96 | 2.36
3 | CN(c1ccc(-c2c(O)cc(-c3ccn(C)c(=O)c3)cc2OC(F)(F)F)nn1)C1CC(C)(C)NC(C)(C)C1 [Example 25-6, 4-(3-hydroxy-4-(6-(methyl(2,2,6,6-tetramethylpiperidin-4-yl)amino)pyridazin-3-yl)-5-(trifluoromethoxy)phenyl)-1-methylpyridin-2(1H)-one] | 107 | 2.16
4 | COc1cc(-c2cnn(C)c2)cc(O)c1-c1ccc(N(C)C2CC(C)(C)NC(C)(C)C2)nn1 [Example 26-1, 3-methoxy-2-(6-(methyl(2,2,6,6-tetramethylpiperidin-4-yl)amino)pyridazin-3-yl)-5-(1-methyl-1H-pyrazol-4-yl)phenol] | 14 | 3.18
5 | COc1cc(-c2cnc3n2CCCC3)cc(O)c1-c1ccc(N(C)C2CC(C)(C)NC(C)(C)C2)nn1 [Example 26-2, 3-methoxy-2-(6-(methyl(2,2,6,6-tetramethylpiperidin-4-yl)amino)pyridazin-3-yl)-5-(5,6,7,8-tetrahydroimidazo[1,2-a]pyridin-3-yl)phenol] | 97 | 2.61
6 | COc1cc(-c2cccnc2)cc(O)c1-c1ccc(N(C)C2CC(C)(C)NC(C)(C)C2)nn1 [Example 26-3, 3-methoxy-2-(6-(methyl(2,2,6,6-tetramethylpiperidin-4-yl)amino)pyridazin-3-yl)-5-(pyridin-3-yl)phenol] | 47 | 2.70
7 | COc1cc(-c2cnn(C3CCCC3)c2)cc(O)c1-c1ccc(N(C)C2CC(C)(C)NC(C)(C)C2)nn1 [Example 26-4, 5-(1-cyclopentyl-1H-pyrazol-4-yl)-3-methoxy-2-(6-(methyl(2,2,6,6-tetramethylpiperidin-4-yl)amino)pyridazin-3-yl)phenol] | 649 | 2.22
8 | COc1cccc(-c2cc(O)c(-c3ccc(N(C)C4CC(C)(C)NC(C)(C)C4)nn3)c(OC)c2)c1 [Example 26-5, 3′,5-Dimethoxy-4-(6-(methyl(2,2,6,6-tetramethylpiperidin-4-yl)amino)pyridazin-3-yl)-[1,1′-biphenyl]-3-ol] | 313 | 2.14
9 | Cc1cnc(-c2cc(O)c(-c3ccc(N(C)C4CC(C)(C)NC(C)(C)C4)nn3)c(OCc3ccccc3)c2)o1 [Example 27-1, 3-(benzyloxy)-2-(6-(methyl(2,2,6,6-tetramethylpiperidin-4-yl)amino)pyridazin-3-yl)-5-(5-methyloxazol-2-yl)phenol] | 305 | 2.35
10 | CCOc1cc(-c2ncc(C)o2)cc(O)c1-c1ccc(N(C)C2CC(C)(C)NC(C)(C)C2)nn1 [Example 27-2, 3-ethoxy-2-(6-(methyl(2,2,6,6-tetramethylpiperidin-4-yl)amino)pyridazin-3-yl)-5-(5-methyloxazol-2-yl)phenol] | 165 | 2.83
11 | Cc1cnc(-c2cc(O)c(-c3ccc(N(C)C4CC(C)(C)NC(C)(C)C4)nn3)c(OCC3CC3)c2)o1 [Example 27-3, 3-(cyclopropylmethoxy)-2-(6-(methyl(2,2,6,6-tetramethylpiperidin-4-yl)amino)-pyridazin-3-yl)-5-(5-methyloxazol-2-yl)phenol] | 619 | 2.75
12 | Cc1nc2cc(-c3ccc(N(C)C4CC(C)(C)NC(C)(C)C4)nn3)c(O)cc2[nH]1 [Example 28-1, 2-methyl-5-(6-(methyl(2,2,6,6-tetramethylpiperidin-4-yl)amino)pyridazin-3-yl)-1H-benzo[d]imidazol-6-ol] | 475 | 3.41
13 | CN(c1ccc(-c2ccc(Cl)cc2O)nn1)C1CC(C)(C)NC(C)(C)C1 [Example 29-1, 5-chloro-2-(6-(methyl(2,2,6,6-tetramethylpiperidin-4-yl)amino)pyridazin-3-yl)phenol] | 113 | 2.49
14 | CC1(C)CC(Nc2ccc(-c3ccc(-n4cccn4)cc3O)nn2)CC(C)(C)N1 [Example 30-1, 5-(1H-pyrazol-1-yl)-2-(6-((2,2,6,6-tetramethylpiperidin-4-yl)amino)pyridazin-3-yl)phenol] | 8 | 2.99
15 | CC1(C)CC(Nc2ccc(-c3ccc(C#N)cc3O)nn2)CC(C)(C)N1 [Example 30-2, 3-hydroxy-4-(6-((2,2,6,6-tetramethylpiperidin-4-yl)amino)pyridazin-3-yl)benzonitrile] | 62 | 2.98
16 | CC1(C)CC(Oc2ccc(-c3ccc(-n4cccn4)cc3O)nn2)CCN1 (stereo not drawn) [Example 31-1, 2-(6-((2,2-dimethylpiperidin-4-yl)oxy)pyridazin-3-yl)-5-(1H-pyrazol-1-yl)phenol] | 200 | 3.03
17 | CN(c1ccc(-c2cc(-c3cn[nH]c3)ccc2O)nn1)C1CC(C)(C)NC(C)(C)C1 [Example 32-1, 2-(6-(methyl(2,2,6,6-tetramethylpiperidin-4-yl)amino)pyridazin-3-yl)-4-(1H-pyrazol-4-yl)phenol] | 125 | 2.67
18 | CN(c1ccc(-c2cc(-c3cnn4c3CCCC4)ccc2O)nn1)C1CC(C)(C)NC(C)(C)C1 [Example 32-2, 2-(6-(methyl(2,2,6,6-tetramethylpiperidin-4-yl)amino)pyridazin-3-yl)-4-(4,5,6,7-tetrahydropyrazolo[1,5-a]pyridin-3-yl)phenol] | 396 | 2.49
19 | CN(c1ccc(-c2cc(-c3cnn4c3CNCC4)ccc2O)nn1)C1CC(C)(C)NC(C)(C)C1 [Example 32-3, 2-(6-(methyl(2,2,6,6-tetramethylpiperidin-4-yl)amino)pyridazin-3-yl)-4-(4,5,6,7-tetrahydropyrazolo[1,5-a]pyrazin-3-yl)phenol] | 201 | 2.44
20 | CN(c1ccc(-c2cc(-c3cc4ccccc4[nH]3)ccc2O)nn1)C1CC(C)(C)NC(C)(C)C1 [Example 32-4, 4-(1H-indol-2-yl)-2-(6-(methyl(2,2,6,6-tetramethylpiperidin-4-yl)amino)pyridazin-3-yl)phenol] | 168 | 2.09
21 | CN(c1ccc(-c2cc(C3=CCCC3)ccc2O)nn1)C1CC(C)(C)NC(C)(C)C1 [Example 32-5, 4-(cyclopent-1-en-1-yl)-2-(6-(methyl(2,2,6,6-tetramethylpiperidin-4-yl)amino)pyridazin-3-yl)phenol] | 231 | 2.52
